Measured values as given in patent publication US20160213742A1, “COMPOSITIONS AND METHODS FOR THE TREATMENT OF FUNGAL INFECTIONS” (priority 2013, published 2016).
Converted amounts (≈) assume the structure as drawn.

Key:
Format in all cases: cell-based
[1] = tested on: C. parapsilosis ATCC 22019; test: microbe, parasite or virus in culture
How it was run: (§1)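 Aspergillus MEC and yeast MIC determined by 2-fold broth dilution in RPMI pH 7.0; plates incubated 35° C. until growth wells confluent (~24-48 hr), then read from below for growth inhibition or hyphal morphology change.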

[2] = tested on: C. krusei ATCC 14243; test: microbe, parasite or virus in culture
How it was run: as §1

[3] = tested on: C. glabrata ATCC 90030; test: microbe, parasite or virus in culture
How it was run: as §1

[4] = tested on: C. albicans ATCC 90028; test: microbe, parasite or virus in culture
How it was run: as §1

[5] = tested on: Neutrophils purified from human peripheral blood; test: Human Neutrophil Transwell Migration Assay; conditions: 37° C., 45 minutes, % of the maximum migration possible
Excerpt: Neutrophils were purified from human peripheral blood utilizing PolymorphPrep. Red blood cells were lysed with a lysis buffer and the cells were washed, counted and resuspended in assay buffer. Neutrophils (approximately 50,000 to 100,000 in number) were placed over 5-micon pore sized transwell plates in 24-well format with test compounds in the bottom chamber of each well. A negative control of media alone in the bottom chamber was set up in triplicate. A positive control where the neutrophils were added directly to the bottom well was set up in triplicate.
The plates were incubated at 37° C. for 45 minutes to allow for migration. After this time, migration was confirmed visually and then an aliquot (⅙^th of total cells) from each well was taken for ATP detection via luminescence with ATPlite (PerkinElmer) to quantify the number of migrated cells. The averaged reading for random migration detected in the negative control was subtracted from all readings to obtain the corrected migration number. These numbers were then divided by the averaged reading from the positive control to get the % Neutrophil Migration of the maximum migration possible.

[6] = tested on: A. fumigatus MYA-3626; test: MEC assay (Example 31); conditions: RPMI pH 7.0, 35° C., 24-48 hr
How it was run: as §1

[7] = tested on: A. fumigatus MYA-4609; test: MEC assay (Example 31); conditions: RPMI pH 7.0, 35° C., 24-48 hr
How it was run: as §1

[8] = tested on: A. fumigatus MX 5944; test: MEC assay (Example 31); conditions: RPMI pH 7.0, 35° C., 24-48 hr
How it was run: as §1

[9] = tested on: A. fumigatus ATCC 13073; test: MEC assay (Example 31); conditions: RPMI pH 7.0, 35° C., 24-48 hr
How it was run: as §1

[10] = tested on: A. flavus MX 5948; test: MEC assay (Example 31); conditions: RPMI pH 7.0, 35° C., 24-48 hr
How it was run: as §1

Q: With `CC[C@H](C)C[C@H](C)CCCCCCCCC(=O)N[C@H]1C[C@@H](O)[C@@H](NCCN)NC(=O)[C@@H]2[C@@H](O)CCN2C(=O)[C@H]([C@H](O)CCNC(=O)[C@H](CO)NC(=O)[C@H](CC(C)C)NC(=O)[C@H](CCSC)NC=O)NC(=O)[C@H]([C@H](O)[C@@H](O)c2ccc(O)cc2)NC(=O)[C@@H]2C[C@@H](O)CN2C(=O)[C@H]([C@@H](C)O)NC1=O` [Compound 29] as the molecule, how does the MIC ([1]; ATCC 22019, pH 7) read?
A: >32 µg/mL

Q: What about the MIC ([2]; ATCC 14243, pH 7) of the same molecule?
A: 32 µg/mL (≈ 22 µM)

Q: And the MIC ([3]; ATCC 90030, pH 7)?
A: 8 µg/mL (≈ 5.51 µM)

Q: And the MIC ([4]; ATCC 90028, pH 7)?
A: 2 µg/mL (≈ 1.38 µM)

Q: And the “% Neutrophil Migration” value ([5]; conc 0.001 μg/mL)?
A: 1.4%

Q: What about the “% Neutrophil Migration” value ([5]; conc 0.01 μg/mL) of the same molecule?
A: 0.1%

Q: And the “% Neutrophil Migration” value ([5]; conc 0.1 μg/mL)?
A: 2.2%

Q: And the “% Neutrophil Migration” value ([5]; conc 1 μg/mL)?
A: 11.0%

Q: And the “% Neutrophil Migration” value ([5]; conc 10 μg/mL)?
A: 8.4%

Q: What about the MEC [6] of the same molecule?
A: 0.25 µg/mL

Q: And the MEC [7]?
A: 0.25 µg/mL

Q: And the MEC [8]?
A: 0.25 µg/mL

Q: And the MEC [9]?
A: 0.5 µg/mL

Q: What about the MEC [10] of the same molecule?
A: 0.25 µg/mL

Q: Which MIC ([1]; ATCC 22019, pH 7) does the source give for `CC[C@H](C)C[C@H](C)CCCCCCCCC(=O)N[C@H]1C[C@@H](O)[C@@H](NCCN)NC(=O)[C@@H]2[C@@H](O)CCN2C(=O)[C@H]([C@H](O)CCNC(=O)CCNC(=O)[C@H](Cc2ccccc2)NC(=O)[C@H](CC(C)C)NC(=O)[C@H](CCSC)NC=O)NC(=O)[C@H]([C@H](O)[C@@H](O)c2ccc(O)cc2)NC(=O)[C@@H]2C[C@@H](O)CN2C(=O)[C@H]([C@@H](C)O)NC1=O` [Compound 3] here?
A: >32 µg/mL

Q: And the MIC ([2]; ATCC 14243, pH 7)?
A: 16 µg/mL (≈ 10.1 µM)

Q: What about the MIC ([3]; ATCC 90030, pH 7) of the same molecule?
A: 16 µg/mL (≈ 10.1 µM)

Q: And the MIC ([4]; ATCC 90028, pH 7)?
A: 2 µg/mL (≈ 1.26 µM)

Q: What about the “% Neutrophil Migration” value ([5]; conc 0.001 μg/mL) of the same molecule?
A: 1.5%

Q: What about the “% Neutrophil Migration” value ([5]; conc 0.01 μg/mL) of the same molecule?
A: 109.3%

Q: And the “% Neutrophil Migration” value ([5]; conc 0.1 μg/mL)?
A: 66.2%

Q: What about the “% Neutrophil Migration” value ([5]; conc 1 μg/mL) of the same molecule?
A: −9.7%

Q: And the “% Neutrophil Migration” value ([5]; conc 10 μg/mL)?
A: −11.0%

Q: And the MEC [6]?
A: 1 µg/mL

Q: What about the MEC [7] of the same molecule?
A: 1 µg/mL

Q: What about the MEC [8] of the same molecule?
A: 1 µg/mL

Q: And the MEC [9]?
A: 1 µg/mL

Q: And the MEC [10]?
A: 1 µg/mL

Q: `CC[C@H](C)C[C@H](C)CCCCCCCCC(=O)N[C@H]1C[C@@H](O)[C@@H](NCCN)NC(=O)[C@@H]2[C@@H](O)CCN2C(=O)[C@H]([C@H](O)CCNC(=O)[C@H](CCSC)NC=O)NC(=O)[C@H]([C@H](O)[C@@H](O)c2ccc(O)cc2)NC(=O)[C@@H]2C[C@@H](O)CN2C(=O)[C@H]([C@@H](C)O)NC1=O` [Compound 26] was tested. Which MIC ([1]; ATCC 22019, pH 7) did it give?
A: 4 µg/mL (≈ 3.19 µM)

Q: What about the MIC ([2]; ATCC 14243, pH 7) of the same molecule?
A: 4 µg/mL (≈ 3.19 µM)

Q: What about the MIC ([3]; ATCC 90030, pH 7) of the same molecule?
A: 1 µg/mL (≈ 0.798 µM)

Q: And the MIC ([4]; ATCC 90028, pH 7)?
A: 0.25 µg/mL (≈ 0.2 µM)

Q: And the “% Neutrophil Migration” value ([5]; conc 0.001 μg/mL)?
A: −3.4%

Q: And the “% Neutrophil Migration” value ([5]; conc 0.01 μg/mL)?
A: −3.4%

Q: What about the “% Neutrophil Migration” value ([5]; conc 0.1 μg/mL) of the same molecule?
A: −5.1%

Q: What about the “% Neutrophil Migration” value ([5]; conc 1 μg/mL) of the same molecule?
A: −4.1%

Q: And the “% Neutrophil Migration” value ([5]; conc 10 μg/mL)?
A: 15.7%

Q: And the MEC [6]?
A: ≦0.03 μg/mL

Q: What about the MEC [7] of the same molecule?
A: ≦0.03 μg/mL

Q: What about the MEC [8] of the same molecule?
A: ≦0.03 μg/mL

Q: What about the MEC [9] of the same molecule?
A: ≦0.03 μg/mL

Q: And the MEC [10]?
A: ≦0.03 μg/mL

Q: For `CC[C@H](C)C[C@H](C)CCCCCCCCC(=O)N[C@H]1C[C@@H](O)[C@@H](NCCNC(=O)C(Cc2ccccc2)NC(=O)C(CC(C)C)NC(=O)C(CCSC)NC(=O)Nc2ccc(Cl)cc2)NC(=O)[C@@H]2[C@@H](O)CCN2C(=O)[C@H]([C@H](O)CCN)NC(=O)[C@H]([C@H](O)[C@@H](O)c2ccc(O)cc2)NC(=O)[C@@H]2C[C@@H](O)CN2C(=O)[C@H]([C@@H](C)O)NC1=O` (single isomer, unassigned) [Compound 13b], which MIC ([1]; C. parapsilosis ATCC 22019, RPMI pH 7.0, 35° C., 24-48 hr) is on record?
A: 32 µg/mL (≈ 19.5 µM)

Q: What about the MIC ([2]; C. krusei ATCC 14243, RPMI pH 7.0, 35° C., 24-48 hr) of the same molecule?
A: 16 µg/mL (≈ 9.77 µM)

Q: What about the MIC ([3]; C. glabrata ATCC 90030, RPMI pH 7.0, 35° C., 24-48 hr) of the same molecule?
A: 8 µg/mL (≈ 4.88 µM)

Q: What about the MIC ([4]; C. albicans ATCC 90028, RPMI pH 7.0, 35° C., 24-48 hr) of the same molecule?
A: 2 µg/mL (≈ 1.22 µM)

Q: What about the “% Neutrophil Migration” value ([5]; conc 0.001 μg/mL) of the same molecule?
A: 6.2%

Q: And the “% Neutrophil Migration” value ([5]; conc 0.01 μg/mL)?
A: 26.1%

Q: And the “% Neutrophil Migration” value ([5]; conc 0.1 μg/mL)?
A: 11.5%

Q: What about the “% Neutrophil Migration” value ([5]; conc 1 μg/mL) of the same molecule?
A: −8.5%

Q: What about the “% Neutrophil Migration” value ([5]; conc 10 μg/mL) of the same molecule?
A: −7.6%

Q: What about the MEC [6] of the same molecule?
A: 0.25 µg/mL

Q: And the MEC [7]?
A: 0.12 µg/mL

Q: And the MEC [8]?
A: 0.25 µg/mL

Q: And the MEC [9]?
A: 0.25 µg/mL

Q: And the MEC [10]?
A: 0.12 µg/mL
